Data from patent US5595883A, “Method of diagnosing alzheimer's disease by measuring acetylcholinesterase activity in ocular fluid” (priority 1990, dated 1997).

System: AChE
Test: Cholinesterase activity of human ocular fluid (micro Ellman assay, acetylthiocholine substrate), inhibition by BW 284c51
Format: biochemical
Conditions: BW 284c51 1.5 μM, acetylthiocholine 1.0 mM, pH 7.0, 25° C.
Procedure: Cholinesterase activities were measured by a microversion of the method of Ellman et al, (1961) supra, using microtitre plates. Acetylthiocholine was used as substrate at a concentration of 1.0 mM, which is optimal for AChE, but suboptimal for BuChE. The assay was performed in 0.05M Na/K phosphate buffer, pH 7.0 at 25° C., containing 3 mM 5,5'-dithio-bis-(2-nitrobenzoate), in a total volume of 100 μL. The rate of hydrolysis of acetylthiocholine was monitored by measurement of absorbances at 410 nm, using a Titertek multiscan microplate reader. A calibration curve was constructed using purified electric eel AChE (Sigma). AChE and BuChE activities were distinguished by use of the specific AChE inhibitor 1,5-bis-(-4-allyldimethylammoniumphenyl)pentan-3-one dibromide (BW 284c51) (1.5 μM).

C=CC[N+](C)(C)c1ccc(CCC(=O)CCc2ccc([N+](C)(C)CC=C)cc2)cc1 [BW 284c51, 1,5-bis-(-4-allyldimethylammoniumphenyl)pentan-3-one dibromide]
inhibition of cholinesterase activity of ocular fluid: Most of this activity was inhibited
